Reference: patent US20230233500A1, “Gasdermin D (GSDMD) Succination for the Treatment of Inflammatory Disease” (University of Massachusetts, priority 2020, published 2023)
Entries after “also recorded” stand apart in the source; their conditions may differ. Structures can show the parent of a compound that is named as a salt. Where two headings read alike, the source gives them in different places.

Assays:
[1] = system: Mefv^V726/V726 mouse model; experiment: Familial Mediterranean Fever Mefv V726/V726 mouse model; format: in vivo; details: for weight (weight loss / weight gain): diet containing dimethyl fumarate (100 mg/kg/day; 0.1% DMF) for 6 weeks; for GSDMD-N (GsdmD-p30) formation in spleen: immunoblot
Method: FIGS. 15A-E. Fumarate alleviates FMF. (A-D) Weight gain (A), spleen weight (B), ELISA of serum IL-1B and immunoblot of spleen GSDMD (D) liver H&E (E) from Mefv726/726 receiving vehicle diet or a diet containing dimethyl fumarate (100 mg/kg/day) for 6 weeks. Data points indicative of individual mice. *, P<0.05 ***, P<0.001 (t-test or Two-way ANOVA). Error bars show means±SEM.
All animal experiments were approved by the Institutional Animal Care Use Committees at the University of Massachusetts Medical School. Animal were kept in specific pathogen free (SPF) environment. Male and female C57/BL6 and Gsdmd−/− mice were used. Gsdmd−/− mice were generated as previously described (22). MefvV726/V726 mice were a gift from Prof. Daniel Kastner (23). Sample sizes used are in line with other similar published studies. All animals were used at age 8-12 weeks.
DMF embedded mouse diet was formulated by Lab Diets®. DMF was added to a base diet of laboratory lab diet 5001 at a dose 100 mg/kg/day of consumption. Mice received the control base diet or the DMF containing diet for 6 weeks.

human THP1 = experiment: LPS-Nig induced cell death and LDH release in THP1 cells; format: cell-based; details: PMA-differentiated THP1, fumarate 25 μM; for LPS-Nig induced cell death: SYTOX Orange
Method: FIGS. 6A-G. Fumarate inhibits pyroptosis in Human cells. (A-B) Representative images (A) and kinetic data (B) of SYTOX Orange and Hoechst-stained PMA-differentiated THP1 cells treated with LPS for 2 hours, DMSO (vehicle) or fumarate (25 μM) for 1 hour and nigericin (10 μM) for 6 hours. (C) LDH release from (A). (D-E) Kinetic cell death data of SYTOX Orange and Hoechst stained (D) or LDH assay of conditioned medium from primary CD14+ positive monocytes treated with LPS for 2 hours DMSO (vehicle) or fumarate (25 μM) for 1 hour and nigericin (10 μM) for 6 hours. (F) LC/MS quantification of fumarate in WT BMDMs treated with LPS for 2 hours, FHIN1 for 1 hour and nigericin for 1 hour. (G) Representative images of WT primary BMDMs stained with SYTOX Orange and Hoechst following treatment with LPS for 2 hours, DMSO (vehicle) or fumarate (25 μM) or FHIN1 (25 μM) for 1 hour and nigericin for a timecourse of 6 hours. A, B, D, G are representative of 3 independent experiments. C, E, F are pooled data from 3 independent experiments. ***, P<0.001, ****, P<0.00001 (Students t-test). Error bars show mean±SD (B, D) or SEM (C, E). Human kidney cell line HEK293T was cultured in Dulbecco's modified Eagle's medium supplemented with 10% (v/v) fetal bovine serum, 100 U/ml penicillin and 100 µg/ml streptomycin. Human peripheral blood monocyte cell line, THP1 cells were cultured in RPMI-1640 medium supplemented with 10% (v/v) fetal bovine serum, 100 U/ml penicillin and 100 µg/ml streptomycin. For isolation of BMDMs, tibias and femurs were removed from wild type and GsdmD^−/− mice and bone marrow was flushed with complete DMEM-medium. Cells were plated in medium containing 20% (v/v) conditioned medium of L929 mouse fibroblasts cultured for 7 days at 37° C. in a humidified atmosphere of 5% C02. Medium was replaced every 3 days. Cells were plated, treated and incubated in phenol red free medium. Following treatment medium was collected and assessed for LDH release using the CytoTox96 non-radioactive cytotoxicity assay (Promega) as per manufacturer's instructions. […]

m.GSDMD = target: T1, m.GSDMD (Mus musculus, UniProt Q9D8T2); experiment: In vitro succination reaction with LC-MS/MS peptide mapping; format: binding; details: recombinant m.GSDMD
T1 sequence (Q9D8T2 1-487): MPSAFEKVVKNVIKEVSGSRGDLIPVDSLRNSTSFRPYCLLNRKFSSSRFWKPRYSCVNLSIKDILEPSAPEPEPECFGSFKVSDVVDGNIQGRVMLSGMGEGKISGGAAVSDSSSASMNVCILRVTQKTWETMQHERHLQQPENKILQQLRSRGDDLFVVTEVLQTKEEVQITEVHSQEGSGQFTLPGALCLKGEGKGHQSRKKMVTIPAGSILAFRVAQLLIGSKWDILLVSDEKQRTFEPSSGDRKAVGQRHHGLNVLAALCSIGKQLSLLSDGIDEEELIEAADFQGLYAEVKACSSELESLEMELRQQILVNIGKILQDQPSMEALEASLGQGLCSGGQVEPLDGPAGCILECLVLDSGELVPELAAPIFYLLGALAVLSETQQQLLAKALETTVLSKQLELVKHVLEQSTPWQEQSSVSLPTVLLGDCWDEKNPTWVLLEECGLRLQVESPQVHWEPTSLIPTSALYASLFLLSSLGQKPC

h.GSDME = target: T2, h.GSDME (Homo sapiens, UniProt O60443); experiment: as above; format: binding
T2 sequence (O60443 1-496): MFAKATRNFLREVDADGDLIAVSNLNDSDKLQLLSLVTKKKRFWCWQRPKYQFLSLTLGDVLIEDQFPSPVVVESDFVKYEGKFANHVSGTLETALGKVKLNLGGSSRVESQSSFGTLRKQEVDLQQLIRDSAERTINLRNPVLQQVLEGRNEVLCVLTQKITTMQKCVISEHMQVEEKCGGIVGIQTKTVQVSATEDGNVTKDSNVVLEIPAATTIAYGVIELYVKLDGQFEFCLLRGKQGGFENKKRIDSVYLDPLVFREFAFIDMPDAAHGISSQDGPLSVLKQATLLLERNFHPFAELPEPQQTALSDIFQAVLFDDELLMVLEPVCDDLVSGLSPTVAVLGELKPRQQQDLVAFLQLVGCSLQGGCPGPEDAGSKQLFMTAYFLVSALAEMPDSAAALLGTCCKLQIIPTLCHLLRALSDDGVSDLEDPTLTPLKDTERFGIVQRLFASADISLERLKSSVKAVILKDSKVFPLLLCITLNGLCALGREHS

[2] = diet containing dimethyl fumarate for 6 weeks
[3] = diet containing dimethyl fumarate for 6 weeks, listed as DMF

SMILES: COC(=O)/C=C/C(=O)OC [Fumarate, Dimethyl fumarate]
- weight (weight loss / weight gain) [1]: alleviated
- weight (weight loss / weight gain) ([1]; listed as DMF): increased weight
- IL-1β secretion (serum) [1, 2]: alleviated
- spleen size (splenomegaly) [1, 2]: alleviated
- liver pathology ([1]; diet containing dimethyl fumarate for 6 weeks, H&E): alleviated
- GSDMD-N (GsdmD-p30) formation in spleen [1, 2]: alleviated
- GSDMD-N (GsdmD-p30) formation in spleen [1, 3]: reduced levels
- spleen size (splenomegaly) [1, 3]: reduced spleen size
- fibrosis of liver and lung ([1]; diet including 0.1% DMF): reduction in fibrosis
- runting ([1]; diet including 0.1% DMF): rescue of runting
- LPS-Nig induced LDH release (human THP1): blocked
- LPS-Nig induced cell death (human THP1): blocked
- LPS-Nig induced cell death (human THP1; listed as fumarate): inhibited cell death
- In vitro cysteine succination sites (m.GSDMD): same cysteines
- In vitro cysteine succination sites (h.GSDME): Cys^45
- In vitro cysteine succination sites (h.GSDME; listed as DMF): Cys235; also recorded: Cys371; also recorded: Cys408; also recorded: Cys489; also recorded: Cys45; also recorded: Cys156; also recorded: Cys180
